Experimental data as given in US7767659B2, “Synthesis of naturally occurring ecteinascidins and related compounds” (Pharma Mar, S.A., priority 2002, dated 2010).
Where two headings read alike, the source gives them in different places.

Experiments:
IGROV-1 = assay: Inhibition of cells growth by colorimetric assay (SRB); conditions: Homo sapiens, IGROV-1, 48 h
Method in brief: (§1)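 Colorimetric SRB read (490 nm) on triplicate wells after 48 h at 37 °C, 5% CO2. Dose range 10 to 10^−8 μg/ml; 5×10^3 cells/well pre-attached 18 h.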

K-562 = assay: as above; conditions: Homo sapiens, K562, 48 h
Method in brief: as §1

PANC-1 = assay: as above; conditions: Homo sapiens, PANC-1, 48 h
Method in brief: as §1

SK-MEL-28 = assay: as above; conditions: Homo sapiens, SK-MEL-28, 48 h
Method in brief: as §1

HeLa = assay: as above; conditions: Homo sapiens, HeLa, 48 h
Method in brief: as §1

SK-BR-3 = assay: as above; conditions: Homo sapiens, SK-BR-3, 48 h
Method in brief: as §1

HeLa-APL = assay: as above; conditions: Homo sapiens, 48 h
Method in brief: as §1

DU-145 = assay: as above; conditions: Homo sapiens, DU-145, 48 h
Method in brief: as §1

LNCaP = assay: as above; conditions: Homo sapiens, LNCaP, 48 h
Method in brief: as §1

IGROV-ET = assay: as above; conditions: Homo sapiens, 48 h
Method in brief: as §1

LoVo-Dox = assay: as above; conditions: Homo sapiens, 48 h
Method in brief: as §1

A-549 = assay: cells; conditions: Homo sapiens, A549, 48 h
Method in brief: as §1

LoVo = assay: cells; conditions: Homo sapiens, LoVo, 48 h
Method in brief: as §1

HT-29 = assay: cells; conditions: Homo sapiens, HT-29, 48 h
Method in brief: as §1

COc1c(C)cc2c(c1O)[C@H]1N[C@@H](C2)[C@H](C#N)N2C1[C@@H]1SCC(NC(C)=O)C(=O)OC[C@H]2c2c3c(c(C)c(OC(C)=O)c21)OCO3 (stereo partly drawn) [compound 30]
GI50 (IGROV-1; read-out: GI50 IGROV): 0.695 nM
CC50 (IGROV-1; read-out: LC50 IGROV): 231 nM
IC (TGI) (IGROV-1; read-out: TGI IGROV): 3.32 nM
GI50 (K-562; read-out: GI50 K562): 0.312 nM
CC50 (K-562; read-out: LC50 K562): 9510 nM
IC (TGI) (K-562; read-out: TGI K562): 2.49 nM
GI50 (PANC-1; read-out: GI50 PANC-1): 2.89 nM
CC50 (PANC-1; read-out: LC50 PANC-1): 15400 nM
IC (TGI) (PANC-1; read-out: TGI PANC-1): 15.5 nM
GI50 (SK-MEL-28; read-out: GI50 MEL-28): 1.09 nM
CC50 (SK-MEL-28; read-out: LC50 MEL-28): 10.7 nM
IC (TGI) (SK-MEL-28; read-out: TGI MEL-28): 3.66 nM
GI50 (HeLa; read-out: GI50 HELA): 1.15 nM
CC50 (HeLa; read-out: LC50 HELA): 21.7 nM
IC (TGI) (HeLa; read-out: TGI HELA): 4.53 nM
GI50 (SK-BR-3; read-out: GI50 SK-BR3): 0.527 nM
CC50 (SK-BR-3; read-out: LC50 SK-BR3): 267 nM
IC (TGI) (SK-BR-3; read-out: TGI SK-BR3): 2.29 nM
GI50 (HeLa-APL; read-out: GI50 HELA-APL): 1.86 nM
CC50 (HeLa-APL; read-out: LC50 HELA-APL): 19.5 nM
IC (TGI) (HeLa-APL; read-out: TGI HELA-APL): 5.5 nM
GI50 (DU-145; read-out: GI50 DU145): 2.63 nM
CC50 (DU-145; read-out: LC50 DU145): 14100 nM
IC (TGI) (DU-145; read-out: TGI DU145): 7.44 nM
GI50 (LNCaP; read-out: GI50 LNCAP): 96.8 nM
CC50 (LNCaP; read-out: LC50 LNCAP): 147 nM
IC (TGI) (LNCaP; read-out: TGI LNCAP): 120 nM
GI50 (IGROV-ET; read-out: GI50 IGROV-ET): 25.4 nM
CC50 (IGROV-ET; read-out: LC50 IGROV-ET): 15400 nM
IC (TGI) (IGROV-ET; read-out: TGI IGROV-ET): 82.4 nM
GI50 (LoVo-Dox; read-out: GI50 LOVO-DOX): 207 nM
CC50 (LoVo-Dox; read-out: LC50 LOVO-DOX): 15400 nM
IC (TGI) (LoVo-Dox; read-out: TGI LOVO-DOX): 2070 nM
GI50 (A-549; read-out: GI50 A549): 3.47 nM
CC50 (A-549; read-out: LC50 A549): 89 nM
IC (TGI) (A-549; read-out: TGI A549): 10.5 nM
GI50 (LoVo; read-out: GI50 LOVO): 2 nM
CC50 (LoVo; read-out: LC50 LOVO): 15400 nM
IC (TGI) (LoVo; read-out: TGI LOVO): 8.07 nM
GI50 (HT-29; read-out: GI50 HT29): 2.03 nM
CC50 (HT-29; read-out: LC50 HT29): 15400 nM
IC (TGI) (HT-29; read-out: TGI HT29): 13.5 nM

COC1=C(C)C(=O)C2=C(C1=O)[C@@H]1C3[C@@H]4SC[C@]5(NCCc6c5[nH]c5ccccc65)C(=O)OC[C@@H](c5c6c(c(C)c(OC(C)=O)c54)OCO6)N3[C@@H](O)[C@H](C2)N1C (stereo partly drawn) [ET-736-quinone]
GI50 (IGROV-1; read-out: IGROV GI50): 67.1 nM
CC50 (IGROV-1; read-out: IGROV LC50): 735 nM
IC (TGI) (IGROV-1; read-out: IGROV TGI): 215 nM
GI50 (K-562; read-out: K562 GI50): 4.96 nM
CC50 (K-562; read-out: K562 LC50): 105 nM
IC (TGI) (K-562; read-out: K562 TGI): 13.7 nM
GI50 (PANC-1; read-out: PANC-1 GI50): 394 nM
CC50 (PANC-1; read-out: PANC-1 LC50): 13000 nM
IC (TGI) (PANC-1; read-out: PANC-1 TGI): 957 nM
GI50 (SK-MEL-28; read-out: MEL-28 GI50): 123 nM
CC50 (SK-MEL-28; read-out: MEL-28 LC50): 718 nM
IC (TGI) (SK-MEL-28; read-out: MEL-28 TGI): 300 nM
GI50 (HeLa; read-out: HELA GI50): 3320 nM
CC50 (HeLa; read-out: HELA LC50): 114 nM
IC (TGI) (HeLa; read-out: HELA TGI): 6140 nM
GI50 (SK-BR-3; read-out: SK-BR3 GI50): 5.33 nM
CC50 (SK-BR-3; read-out: SK-BR3 LC50): 192 nM
IC (TGI) (SK-BR-3; read-out: SK-BR3 TGI): 11.3 nM
GI50 (HeLa-APL; read-out: HELA-APL GI50): 55.5 nM
CC50 (HeLa-APL; read-out: HELA-APL LC50): 111 nM
IC (TGI) (HeLa-APL; read-out: HELA-APL TGI): 78.4 nM
GI50 (DU-145; read-out: DU145 GI50): 45.1 nM
CC50 (DU-145; read-out: DU145 LC50): 129 nM
IC (TGI) (DU-145; read-out: DU145 TGI): 76.3 nM
GI50 (LNCaP; read-out: LNCAP GI50): 24.8 nM
CC50 (LNCaP; read-out: LNCAP LC50): 79.9 nM
IC (TGI) (LNCaP; read-out: LNCAP TGI): 44.6 nM
GI50 (IGROV-ET; read-out: IGROV-ET GI50): 510 nM
CC50 (IGROV-ET; read-out: IGROV-ET LC50): 1200 nM
IC (TGI) (IGROV-ET; read-out: IGROV-ET TGI): 782 nM
GI50 (LoVo-Dox; read-out: LOVO-DOX GI50): 747 nM
CC50 (LoVo-Dox; read-out: LOVO-DOX LC50): 13000 nM
IC (TGI) (LoVo-Dox; read-out: LOVO-DOX TGI): 3280 nM
GI50 (A-549; read-out: A549 GI50): 25.6 nM
CC50 (A-549; read-out: A549 LC50): 109 nM
IC (TGI) (A-549; read-out: A549 TGI): 52.9 nM
GI50 (LoVo; read-out: LOVO GI50): 265 nM
CC50 (LoVo; read-out: LOVO LC50): 1300 nM
IC (TGI) (LoVo; read-out: LOVO TGI): 596 nM
GI50 (HT-29; read-out: HT29 GI50): 51.2 nM
CC50 (HT-29; read-out: HT29 LC50): 13000 nM
IC (TGI) (HT-29; read-out: HT29 TGI): 128 nM
